According to PubChem BioAssay AID1845205 (Molecular Pharmacology Branch, DTP, NCI, 2023):
Values joined by “and” are separate entries in the source; they are usually repeats but may differ in a detail not shown here. Equal entries are not always repeated.

System: MPNST multicellular tumor spheroids, viability % test/control
Test: Anticancer human tumor MPNST cell line growth inhibition;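 note: spheroids exposed to agents for seven days after three days of growth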;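 for viability, T/C: luminescence signal used as surrogate for viable cell amount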
Conditions: for viability, T/C: stronger effect = lower value
Source text: Multicellular complex tumor spheroid response to DNA repair inhibitors in combination with DNA-damaging drugs
This study explores the anticancer activities of DNA-damaging drugs and inhibitors of DNA damage repair, both as single agents and in combinations. Complex tumor spheroids comprised of malignant cells, endothelial cells and mesenchymal stem cells served as an in vitro model for human solid tumors. This model system incorporates physiologically relevant features and patient-derived or established malignant cell lines with clinically relevant genetic alterations from many tumor types. Twenty-six patient-derived or established malignant cell lines were evaluated representing sarcoma, melanoma, small cell lung cancer (SCLC), non-small cell lung cancer (NSCLC), as well as bladder, ovarian and pancreatic cancers. The concentration ranges selected for each drug and investigational agent were based upon clinically achievable concentrations if the clinical Cmax of the agent was known.
Compounds. The drugs and compounds olaparib (NSC753686), talazoparib (NSC767125), berzosertib (NSC777718), elimusertib (NSC800525), nedisertib (NSC802822), VX-984 (NSC792969), AZD-1390 (NSC803789), temozolomide (NSC362856), topotecan (NSC609699), trabectedin (NSC813783), staurosporine (NSC755774), and gemcitabine (NSC613327) were obtained from the National Cancer Institute (NCI) Developmental Therapeutics Program Chemical Repository. The FDA-approved anticancer drug set is available from the Developmental Therapeutics Program at https://dtp.cancer.gov/organization/dscb/obtaining/available_plates.htm. […] The stock solutions were prepared in dimethyl sulfoxide (DMSO, Sigma-Aldrich, St. Louis, MO, cat. D2650) at 400-fold the tested concentration and stored at -70 degrees C. Prior to their use, the stock solutions were diluted in fresh medium and the final DMSO concentration in the assay was 0.25% (v/v). All drugs and investigational agents were tested over a range starting from a high concentration at or near the clinical Cmax and decreasing in half-log increments. If the clinical Cmax for an agent had not been determined, the highest concentration tested was 10 microM.
Cell Lines. The patient-derived cancer cell (PDC) lines: 156681-154-R-J1-PDC, 283228-195-R-J1-PDC, 287954-098-R-J1-PDC, 292921-168-R-J2-PDC, 349418-098-R-PDC, 425362-245-T-J1-PDC, 556581-035-R-J1-PDC, and BL0293-F563-PDC were received from the NCI Patient-Derived Models Repository (PDMR, https://pdmr.cancer.gov). The established cell lines HS-SY-2 (RRID:CVCL_8719), MPNST, and SYO-1 (RRID:CVCL_7146) were obtained from the Sloan Kettering Institute. The alveolar soft parts sarcoma cell line ASPS-1 (RRID:CVCL_S738) was established at the NCI and grown from internal seed stocks. The following established cell lines were purchased from the American Type Culture Collection (ATCC, Manassas, VA): G-401 (ATCC, cat. CRL-1441, RRID:CVCL_0270), SW982 (ATCC, cat. HTB-93, RRID:CVCL_1734), VA-ES-BJ (ATCC, cat. CRL-2138, RRID:CVCL_1785), NCI-H719 (ATCC, cat. CRL-5837, RRID:CVCL_1582), NCI-H196 (ATCC, cat. CRL-5823, RRID:CVCL_1509), NCI-H841 (ATCC, cat. CRL-5845, RRID:CVCL_1595), NCI-H1618 (ATCC, cat. CRL-5879, RRID:CVCL_1480), NCI-H1876 (ATCC, cat. CRL-5902, RRID:CVCL_1503), DMS 114 (ATCC, cat. CRL-2066; RRID:CVCL_1174), NCI-H211 (ATCC, cat. CRL-5824; RRID:CVCL_1529), and SW 1271 (ATCC, cat. CRL-2177, RRID:CVCL_1716). The small cell lung cancer cell line COR-L88 was purchased from Sigma-Aldrich (cat. 92031917-1VL, RRID:CVCL_1141). The non-small cell lung cancer cell lines NCI-H226 (RRID:CVCL_1544) and NCI-H322M (RRID:CVCL_1557) were established at the NCI and grown from internal seed stocks. Pooled donor human umbilical vein endothelial cells (HUVEC, Lonza, cat. CC-2519) and human mesenchymal stem cells (hMSC, Lonza, cat. PT-2501) were purchased from Lonza (Walkersville, MD).
Cell Culture. All cells were maintained in an incubator at 37 degrees C and 5% CO2 with 95% humidity. […]

[1] = curve of first compound, second compound 0.003 µM
[2] = second compound 0.003 µM, first compound 0.0949 µM
[3] = second compound 0.003 µM, first compound 0.3 µM
[4] = second compound 0.003 µM, first compound 0.949 µM
[5] = second compound 0.003 µM, first compound 3 µM

Compound: Cc1sc2c(c1C)C(c1ccc(Cl)cc1)=NC(CC(=O)Nc1ccc(O)cc1)c1nnc(C)n1-2 (configuration not stated) + CC[C@@]1(O)C(=O)OCc2c1cc1n(c2=O)Cc2cc3c(CN(C)C)c(O)ccc3nc2-1
- IC50 [1]: 1860 nM
- IC50 (curve of first compound, second compound 0.00949 µM): > 3000 nM
- IC50 (curve of first compound, second compound 0.03 µM): 2500 nM
- IC50 (curve of first compound, second compound 0.0949 µM): 1210 nM
- IC50 (curve of first compound, second compound 0.3 µM): 10.6 nM
- viability, T/C (second compound 0.003 µM, first compound 0.00949 µM): 113%
- viability, T/C (second compound 0.003 µM, first compound 0.03 µM): 98.3%
- viability, T/C [2]: 85.1%
- viability, T/C [3]: 66.9%
- viability, T/C [4]: 51.9%
- viability, T/C [5]: 48.4%
- viability, T/C (second compound 0.00949 µM, first compound 0.00949 µM): 82%
- viability, T/C (second compound 0.00949 µM, first compound 0.03 µM): 85.7%
- viability, T/C (second compound 0.00949 µM, first compound 0.0949 µM): 81.8%
- viability, T/C (second compound 0.00949 µM, first compound 0.3 µM): 62.4%
- viability, T/C (second compound 0.00949 µM, first compound 0.949 µM): 54.5%
- viability, T/C (second compound 0.00949 µM, first compound 3 µM): 50.5%
- viability, T/C (second compound 0.03 µM, first compound 0.00949 µM): 66.8%
- viability, T/C (second compound 0.03 µM, first compound 0.03 µM): 64.1%
- viability, T/C (second compound 0.03 µM, first compound 0.0949 µM): 62%
- viability, T/C (second compound 0.03 µM, first compound 0.3 µM): 58.1%
- viability, T/C (second compound 0.03 µM, first compound 0.949 µM): 51.9%
- viability, T/C (second compound 0.03 µM, first compound 3 µM): 49.4%
- viability, T/C (second compound 0.0949 µM, first compound 0.00949 µM): 58.4%
- viability, T/C (second compound 0.0949 µM, first compound 0.03 µM): 60.1%
- viability, T/C (second compound 0.0949 µM, first compound 0.0949 µM): 60.4%
- viability, T/C (second compound 0.0949 µM, first compound 0.3 µM): 56.3%
- viability, T/C (second compound 0.0949 µM, first compound 0.949 µM): 48.8%
- viability, T/C (second compound 0.0949 µM, first compound 3 µM): 45.4%
- viability, T/C (second compound 0.3 µM, first compound 0.00949 µM): 50.6%
- viability, T/C (second compound 0.3 µM, first compound 0.03 µM): 47.8%
- viability, T/C (second compound 0.3 µM, first compound 0.0949 µM): 47.2%
- viability, T/C (second compound 0.3 µM, first compound 0.3 µM): 44.9%
- viability, T/C (second compound 0.3 µM, first compound 0.949 µM): 37.9%
- viability, T/C (second compound 0.3 µM, first compound 3 µM): 33.1%

Compound: O=C(c1cc(Cc2n[nH]c(=O)c3ccccc23)ccc1F)N1CCN(C(=O)C2CC2)CC1 + COc1cc2c(cc1O)CCNC21CSC2c3c(OC(C)=O)c(C)c4c(c3C(COC1=O)N1C(O)C3Cc5cc(C)c(OC)c(O)c5C(C21)N3C)OCO4
- IC50 (curve of first compound, second compound 30 pM): 5280 nM
- IC50 (curve of first compound, second compound 94.9 pM): 1620 nM
- IC50 (curve of first compound, second compound 0.0003 µM): 153 nM
- IC50 (curve of first compound, second compound 0.000949 µM): < 94.9 nM
- IC50 [1]: < 94.9 nM
- viability, T/C (second compound 30 pM, first compound 0.0949 µM): 91.7%
- viability, T/C (second compound 30 pM, first compound 0.3 µM): 79.2%
- viability, T/C (second compound 30 pM, first compound 0.949 µM): 57.2%
- viability, T/C (second compound 30 pM, first compound 3 µM): 72.7%
- viability, T/C (second compound 30 pM, first compound 9.49 µM): 38.3%
- viability, T/C (second compound 30 pM, first compound 30 µM): 25.2%
- viability, T/C (second compound 94.9 pM, first compound 0.0949 µM): 50.1%
- viability, T/C (second compound 94.9 pM, first compound 0.3 µM): 57.1%
- viability, T/C (second compound 94.9 pM, first compound 0.949 µM): 70%
- viability, T/C (second compound 94.9 pM, first compound 3 µM): 39.7%
- viability, T/C (second compound 94.9 pM, first compound 9.49 µM): 29.7%
- viability, T/C (second compound 94.9 pM, first compound 30 µM): 25.1%
- viability, T/C (second compound 0.0003 µM, first compound 0.0949 µM): 53.5%
- viability, T/C (second compound 0.0003 µM, first compound 0.3 µM): 44.5%
- viability, T/C (second compound 0.0003 µM, first compound 0.949 µM): 40.3%
- viability, T/C (second compound 0.0003 µM, first compound 3 µM): 34.5%
- viability, T/C (second compound 0.0003 µM, first compound 9.49 µM): 28.6%
- viability, T/C (second compound 0.0003 µM, first compound 30 µM): 25.3%
- viability, T/C (second compound 0.000949 µM, first compound 0.0949 µM): 26.8%
- viability, T/C (second compound 0.000949 µM, first compound 0.3 µM): 29.3%
- viability, T/C (second compound 0.000949 µM, first compound 0.949 µM): 25.9%
- viability, T/C (second compound 0.000949 µM, first compound 3 µM): 24.8%
- viability, T/C (second compound 0.000949 µM, first compound 9.49 µM): 21.5%
- viability, T/C (second compound 0.000949 µM, first compound 30 µM): 14.8%
- viability, T/C [2]: 7.65%
- viability, T/C [3]: 7.5%
- viability, T/C [4]: 5.51%
- viability, T/C [5]: 6.23%
- viability, T/C (second compound 0.003 µM, first compound 9.49 µM): 3.48%
- viability, T/C (second compound 0.003 µM, first compound 30 µM): 2.13%

Compound: CNCc1ccc(-c2cc(-c3nc(-c4ccc(S(=O)(=O)C(C)C)cc4)cnc3N)on2)cc1
- viability, T/C (compound 0.00949 µM): 119% and 97.4% and 89.4%
- viability, T/C (compound 0.03 µM): 113% and 110% and 98.9%
- viability, T/C (compound 0.0949 µM): 100% and 81.1% and 87.2%
- viability, T/C (compound 0.3 µM): 74.1% and 69.5% and 55.1%
- viability, T/C (compound 0.949 µM): 61.8% and 69.6% and 42.9%
- viability, T/C (compound 3 µM): 65.9% and 69.1% and 43.7%
- IC50 (curve of compound): > 3000 nM and 495 nM
